Article PMC10363981, “Optimizing the enzymatic release of MMAE from isoDGR-based small molecule drug conjugate by incorporation of a GPLG-PABC enzymatically cleavable linker” (Frontiers in Pharmacology, 2023)

Assays:
[1] = Enzymatic cleavage assay with lysosomal homogenate; format: in vitro ADME; conditions: rat liver lysosomal homogenate, conjugate:lysosomal protein 1:10 (w/w), 0.2 M NaOAc pH 5.05, 37 °C, UPLC-HRMS
Method: The enzymatically cleavage test was performed by incubating the conjugate 2 with rat liver lysosomal homogenate and analyzed by LC–MS. In particular, the conjugate 2 (2.35 μg/μL in DMSO, 5 μL) was diluted with 0.2 M NaOAc solution (pH 5.05, 495 μL) to 0.024 μg/μL. The lysosomal homogenate was prepared from rat liver ([Gomena et al., 2023]), and contained proteins in 71.76 μg/μL concentration. 8.6 μL of this lysosomal homogenate was diluted with 66.4 μL 0.2 M NaOAc solution (pH 5.05), to have a protein concentration of 8.27 μg/μL. To start the assay, 15 μL lysosome homogenate (8.27 μg/μL) was added to 500 μL conjugate solution (0.025 μg/μL), to have a conjugate: lysosomal protein = 1:10 (w/w) ratio. Furthermore, a control reaction mixture was prepared, containing the conjugate (2.35 μg/μL in DMSO, 5 μL) and 510 μL of 0.2 M NaOAc solution (pH 5.05). The samples were stirred at 300 rpm, 37°C and 50 µL aliquots were taken out at 0 min, 15 min, 30 min, 1 h, 2 h, 6 h, 24 h, and 72 h. The enzymatic activity was quenched by adding 5 μL formic acid (FA) to the samples. After this procedure, samples were frozen immediately at −25°C. Control samples were collected at 0 min, 1 h, 6 h, 24 h and 72 h. The composition of the samples was determined by HPLC-MS. […] LC-MS data were analyzed by XcaliburTM software (Thermo Fisher Scientific).

[2] = test system: SK-MEL-28 human melanoma cells; assay: In vitro antiproliferative activity, MTT, 72 h continuous treatment (no-washout); format: cell-based
Method: (§1) U87MG human malignant glioma, SK-MEL-28 human melanoma, SK-OV-3 human ovarian cancer, and A549 human lung cancer cell lines were purchased from ATCC. The cells were cultured in Dulbecco’s Modified Eagle’s Medium (DMEM; Biosera, Nuaille, France), supplemented with 10% heat-inactivated Fetal Bovine Serum (FBS; Biosera), and with 1% Penicillin/Streptomycin (Biosera). Cells were cultured in sterile T75 flasks with ventilation cap (Sarstedt, Nümbrecht, Germany) at 37 °C in a humidified atmosphere with 5% CO2 in ESCO CelCulture Incubator (ESCO, Friedberg, Germany). Manipulations with the cells were performed in biosafety cabinet (laminar) ESCO Sentinel Gold class II model AC2-4E8 (ESCO).
(§2) After standard trypsinization and harvesting cells by trypsin (Biosera), ethylenediaminetetraacetic acid (EDTA; Biosera) and PBS solution, 6×10^3 cells per well were seeded in serum containing (10%) growth medium to 96-well plates with flat bottom (Eppendorf, Hamburg, Germany), in a 100 μL volume per well, and incubated at 37°C.
(§3) […] The control wells were treated only with serum free medium (5% serum final).
(§4) For the evaluation of the in vitro antiproliferative activity of compounds, the cell viability was determined by MTT assay (3-(4,5-dimethylthiazol-2-yl)-2,5-diphenyl-tetrazolium bromide) obtained from Duchefa Biochemie (Haarlem, Netherlands).
(§5) 22 µL of MTT solution (5 mg/mL in PBS, 0.5 mg/mL final) was added to each well and after 2 h incubation at 37°C, the supernatant was removed. […] Average background absorbance (DMSO-Ethanol) was subtracted from absorbance values of control and treated wells, and cell viability was determined relative to untreated (control) wells where cell viability was arbitrarily set to 100%. […] The experiments were done in triplicate and each experiment was repeated three times.

[3] = test system: U87MG human malignant glioma cells; assay: as above; format: cell-based
Method: as §1, §2, §3, §4, §5

[4] = test system: SK-MEL-28 human melanoma cells; assay: In vitro antiproliferative activity, "kiss-and-run" washout experiment (30 min + washout + up to 72 h); format: cell-based
Method: as §1, §2
(§6) In the wash out experiment, cells were incubated with the compounds (5% serum final) for 30 min, then they were washed out, and additionally incubated in growth medium (5% serum final) up to 72 h. The control wells were treated only with serum free medium (5% serum final).
as §4, §5
(§7) Recently, a new protocol for evaluating the antiproliferative activity and the targeting ability of integrin-ligand based conjugates was developed by the group of Prof. […] In this procedure, which we named “kiss-and-run” experiment, after very short initial contact times (15–30 min) of the toxin with the cells in vitro, the solution is drained, and cells are resuspended in the culture medium for a 72 h incubation. This protocol is aimed at simulating the rapid clearance of the drugs that occurs in vivo in the extracellular tumor environment, thus highlighting the ability of the conjugate to bind the integrin receptor on the cell surface.

[5] = test system: SK-OV-3 human ovarian cancer cells; assay: as above; format: cell-based
Method: as §1, §2, §6, §4, §5, §7

[6] = test system: A549 human lung cancer cells; assay: as above; format: cell-based
Method: as §1, §2, §6, §4, §5, §7

[7] = test system: U87MG human malignant glioma cells; assay: as above; format: cell-based
Method: as §1, §2, §6, §4, §5, §7

[8] = test system: SK-OV-3 human ovarian cancer cells; assay: In vitro antiproliferative activity, MTT, 72 h continuous treatment (no-washout); format: cell-based
Method: as §1, §2, §6, §4, §5

[9] = test system: A549 human lung cancer cells; assay: as above; format: cell-based
Method: as §1, §2, §6, §4, §5

[10] = MTT, 72 h continuous treatment, no washout, 5% serum final, triplicate, repeated three times
[11] = relative potency = ratio of IC50 of 2 vs MMAE, 72 h no washout
[12] = MTT, 30 min treatment, washout, further incubation up to 72 h, 5% serum final
[13] = ratio of IC50 of 2 vs MMAE, 30 min + washout + up to 72 h

CC[C@H](C)[C@@H]([C@@H](CC(=O)N1CCC[C@H]1[C@H](OC)[C@@H](C)C(=O)N[C@H](C)[C@@H](O)c1ccccc1)OC)N(C)C(=O)[C@@H](NC(=O)[C@H](C(C)C)N(C)C(=O)OCc1ccc(NC(=O)CNC(=O)[C@H](CC(C)C)NC(=O)[C@@H]2CCCN2C(=O)CNC(=O)CCc2cn(CCOCCOCCOCCOCC(=O)NCc3ccc(CN4C(=O)[C@H]5CC(=O)N[C@H](C(=O)O)CC(=O)NCC(=O)N[C@@H](CCCNC(=N)N)C(=O)NC[C@H]4C(=O)N5)cc3)nn2)cc1)C(C)C [compound 2, cyclo[DKP-isoDGR]-PEG4-GPLG-PABC-MMAE]
cleavage of the conjugate in the presence of lysosomal enzymes [1]: rapidly cleaved
incubation time after which released free MMAE is detectable [1]: ≤ 15 min
IC50 [2, 10]: 0.0704 ± 0.0071 µM
RP [SMDC (2)/MMAE] SK-MEL-28 [2, 11]: 29.49
IC50 [3, 10]: 0.0075 ± 0.0009 µM
RP [SMDC (2)/MMAE] U87MG [3, 11]: 33.30
IC50 [4, 12]: 0.938 ± 0.112 µM
RP [SMDC (2)/MMAE] SK-MEL-28 [4, 13]: 0.67
IC50 [5, 12]: 0.198 ± 0.0137 µM
RP [SMDC (2)/MMAE] SK-OV-3 [5, 13]: 0.97
IC50 ([6]; MTT, 30 min treatment, washout, further incubation up to 72 h, 5% serum final, αVβ3 low expressing line): 1.24 ± 0.0852 µM
RP [SMDC (2)/MMAE] A549 [6, 13]: 4.67
IC50 [7, 12]: 0.683 ± 0.0371 µM
RP [SMDC (2)/MMAE] U87MG [7, 13]: 0.32
IC50 [8, 10]: 0.0037 ± 0.0003 µM
RP [SMDC (2)/MMAE] SK-OV-3 [8, 11]: 120.52
IC50 ([9]; MTT, 72 h continuous treatment, no washout, 5% serum final, αVβ3 low expressing line, triplicate, repeated three times): 0.0208 ± 0.0018 µM
RP [SMDC (2)/MMAE] A549 [9, 11]: 302.32
